Experimental data as given in publication PMC2577155 (The Journal of neuroscience : the official journal of the …, 2008).
Residue numbers refer to the chain shown, from its start. Like-named read-outs stand apart in the source and are kept apart here.

Tests used:
[1] = tested on: Sprague-Dawley rats; assay: Catalepsy test; type: in vivo, rat; conditions: sc, up to 4 h; TBPB 30-100 mg/kg
[2] = biological target: T1, rM1 Y381A (Rattus norvegicus, UniProt P08482, Y381A); conditions: ref Sur et al., 2003; cited from earlier work
T1 sequence (P08482 1-460 Y381A): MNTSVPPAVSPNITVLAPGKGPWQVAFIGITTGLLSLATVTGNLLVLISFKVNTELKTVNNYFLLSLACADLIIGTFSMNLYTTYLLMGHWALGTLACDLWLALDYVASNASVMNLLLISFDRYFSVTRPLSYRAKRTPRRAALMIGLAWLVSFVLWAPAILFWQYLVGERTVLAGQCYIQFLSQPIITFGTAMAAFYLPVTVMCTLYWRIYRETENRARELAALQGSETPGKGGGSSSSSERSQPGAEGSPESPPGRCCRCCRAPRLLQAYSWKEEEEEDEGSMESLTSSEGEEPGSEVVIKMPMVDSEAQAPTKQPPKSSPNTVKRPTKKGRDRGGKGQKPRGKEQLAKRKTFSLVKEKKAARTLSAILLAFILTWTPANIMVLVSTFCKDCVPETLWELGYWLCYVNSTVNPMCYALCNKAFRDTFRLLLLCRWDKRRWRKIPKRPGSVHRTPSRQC

[3] = biological target: T2, hM2 (Homo sapiens, UniProt P08172); assay: Calcium mobilization assay, CHO cells expressing hM2-Gqi5; type: cell-based; conditions: M2, concentrations up to 10μM
T2 sequence (P08172 1-466): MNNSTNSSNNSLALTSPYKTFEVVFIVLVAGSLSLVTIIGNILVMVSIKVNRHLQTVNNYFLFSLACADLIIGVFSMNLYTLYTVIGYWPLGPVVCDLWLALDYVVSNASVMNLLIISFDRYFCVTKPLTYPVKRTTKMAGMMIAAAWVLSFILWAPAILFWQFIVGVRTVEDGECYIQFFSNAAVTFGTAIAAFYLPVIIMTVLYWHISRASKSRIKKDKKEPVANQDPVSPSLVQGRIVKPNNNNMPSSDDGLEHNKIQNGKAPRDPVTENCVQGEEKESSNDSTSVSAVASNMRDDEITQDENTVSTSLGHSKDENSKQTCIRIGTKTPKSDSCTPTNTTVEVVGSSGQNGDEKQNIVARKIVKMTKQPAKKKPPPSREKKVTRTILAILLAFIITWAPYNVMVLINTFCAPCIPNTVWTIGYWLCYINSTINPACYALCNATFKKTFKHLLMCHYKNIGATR

[4] = biological target: hM3 (Homo sapiens, UniProt P20309); assay: Calcium mobilization assay, CHO cells expressing hM3; type: cell-based; conditions: M3, concentrations up to 10μM
Sequence of hM3 (P20309 whole entry): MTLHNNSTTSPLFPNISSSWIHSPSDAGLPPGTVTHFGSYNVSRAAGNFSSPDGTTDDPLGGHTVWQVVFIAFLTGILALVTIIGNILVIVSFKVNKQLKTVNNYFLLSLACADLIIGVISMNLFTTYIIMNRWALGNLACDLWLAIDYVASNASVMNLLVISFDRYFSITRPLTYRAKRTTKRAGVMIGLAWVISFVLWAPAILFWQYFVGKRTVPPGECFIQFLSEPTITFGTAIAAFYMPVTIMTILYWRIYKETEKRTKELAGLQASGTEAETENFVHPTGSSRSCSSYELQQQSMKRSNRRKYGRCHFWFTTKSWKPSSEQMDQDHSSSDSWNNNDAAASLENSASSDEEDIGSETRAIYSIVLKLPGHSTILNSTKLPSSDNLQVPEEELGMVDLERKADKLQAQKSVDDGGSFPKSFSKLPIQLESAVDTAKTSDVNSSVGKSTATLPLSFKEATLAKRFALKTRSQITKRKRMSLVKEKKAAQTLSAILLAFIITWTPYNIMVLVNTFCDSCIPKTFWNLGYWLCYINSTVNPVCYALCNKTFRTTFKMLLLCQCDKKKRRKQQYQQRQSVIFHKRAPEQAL

[5] = biological target: T3, rM4 (Rattus norvegicus, UniProt P08485); assay: Calcium mobilization assay, CHO-K1 cells expressing rM4-Gqi5; type: cell-based; conditions: M4, concentrations up to 10μM
T3 sequence (P08485 1-478): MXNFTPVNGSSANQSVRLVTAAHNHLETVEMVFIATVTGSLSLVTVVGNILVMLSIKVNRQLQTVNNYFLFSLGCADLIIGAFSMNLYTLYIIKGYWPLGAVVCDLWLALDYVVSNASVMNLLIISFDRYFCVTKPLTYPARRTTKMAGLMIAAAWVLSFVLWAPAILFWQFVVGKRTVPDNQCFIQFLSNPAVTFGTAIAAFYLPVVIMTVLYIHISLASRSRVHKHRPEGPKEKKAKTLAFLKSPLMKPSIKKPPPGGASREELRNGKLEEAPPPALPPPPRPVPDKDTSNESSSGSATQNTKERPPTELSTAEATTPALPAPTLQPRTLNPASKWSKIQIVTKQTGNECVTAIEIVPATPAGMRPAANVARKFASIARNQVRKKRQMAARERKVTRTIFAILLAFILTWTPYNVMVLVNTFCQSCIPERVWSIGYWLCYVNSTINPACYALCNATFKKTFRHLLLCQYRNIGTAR

[6] = biological target: T4, hM5 (Homo sapiens, UniProt P08912); assay: Calcium mobilization assay, CHO cells expressing hM5; type: cell-based; conditions: M5, concentrations up to 10μM
T4 sequence (P08912 1-532): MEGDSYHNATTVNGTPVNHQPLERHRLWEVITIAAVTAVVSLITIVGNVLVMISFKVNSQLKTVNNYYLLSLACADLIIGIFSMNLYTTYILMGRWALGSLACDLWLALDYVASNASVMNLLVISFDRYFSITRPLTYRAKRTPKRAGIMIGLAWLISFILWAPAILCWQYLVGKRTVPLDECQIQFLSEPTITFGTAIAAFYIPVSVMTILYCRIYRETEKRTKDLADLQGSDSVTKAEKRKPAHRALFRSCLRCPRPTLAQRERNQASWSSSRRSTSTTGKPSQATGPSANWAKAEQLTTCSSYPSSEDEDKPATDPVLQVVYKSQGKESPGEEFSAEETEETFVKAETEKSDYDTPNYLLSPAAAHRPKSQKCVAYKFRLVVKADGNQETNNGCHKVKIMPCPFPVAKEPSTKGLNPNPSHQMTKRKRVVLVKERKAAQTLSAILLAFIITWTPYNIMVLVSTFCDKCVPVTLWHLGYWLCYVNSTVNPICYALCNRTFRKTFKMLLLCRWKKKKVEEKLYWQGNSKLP

[7] = tested on: amyloid precursor protein (APP) processing; type: cell-based; conditions: eight hours
[8] = tested on: Aβ40; type: cell-based; conditions: conditioned media, ELISA
[9] = tested on: Fos-like immunoreactivity; assay: Fos immunohistochemistry in rat forebrain; type: in vivo; conditions: 100 mg/kg sc, two hours after treatment
[10] = tested on: Sprague-Dawley rats; assay: Amphetamine-induced hyperlocomotion; type: in vivo, rat; conditions: significant after 10, 30 and 56.6 mg/kg sc; amphetamine 1 mg/kg sc
[11] = tested on: Sprague-Dawley rats; assay: Locomotor activity when administered alone; type: in vivo, rat; conditions: 30-100 mg/kg sc
[12] = tested on: rats; assay: Modified Irwin neurological test battery; type: in vivo, rat; conditions: 100 mg/kg
[13] = biological target: D2 receptors (Homo sapiens, UniProt P14416); assay: D2 receptor affinity, NIMH Psychoactive Drug Screening Program; type: binding; conditions: D2, PDSP accession number 3156
Sequence of D2 receptors (P14416 whole entry): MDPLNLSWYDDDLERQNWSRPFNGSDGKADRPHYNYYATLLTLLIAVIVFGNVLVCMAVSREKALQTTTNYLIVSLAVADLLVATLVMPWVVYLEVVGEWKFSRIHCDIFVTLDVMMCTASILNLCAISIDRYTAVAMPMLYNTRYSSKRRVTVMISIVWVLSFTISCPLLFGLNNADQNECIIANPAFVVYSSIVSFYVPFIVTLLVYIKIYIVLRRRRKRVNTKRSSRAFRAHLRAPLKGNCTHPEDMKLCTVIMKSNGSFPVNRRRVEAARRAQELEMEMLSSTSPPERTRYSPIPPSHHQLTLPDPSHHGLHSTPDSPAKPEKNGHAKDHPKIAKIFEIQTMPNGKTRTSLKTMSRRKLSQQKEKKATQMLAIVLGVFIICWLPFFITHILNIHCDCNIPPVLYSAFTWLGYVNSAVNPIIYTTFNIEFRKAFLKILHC

[14] = biological target: T5, rM1 (Rattus norvegicus, UniProt P08482); conditions: wt rM1
T5 sequence (P08482 1-460): T1 sequence (P08482 1-460 Y381A) with A381Y

[15] = biological target: T5, rM1; conditions: atropine 1-10 nM (CCh) or 0.3-3.0 nM (TBPB)
[16] = tested on: Sprague-Dawley rats; conditions: ref Shannon et al., 2000; cited from earlier work

## O=C(CCCN1CCC(O)(c2ccc(Cl)cc2)CC1)c1ccc(F)cc1 [Haloperidol, haloperidol]
[1]
  catalepsy: dose-and time-related increases in catalepsy

## Clc1ccc2c(c1)N=C(N1CCNCC1)c1ccccc1N2 [N-desmethylclozapine]
[2]
  activation of the M1 (Y381A) mutant: fully activates

## Cc1ccccc1CN1CCC(N2CCC(n3c(=O)[nH]c4ccccc43)CC2)CC1 [TBPB]
[3]
  agonist activity: no agonist activity
[4]
  agonist activity: no agonist activity
[5]
  agonist activity: no agonist activity
[6]
  agonist activity: no agonist activity
[7]; 1 μM
  increase in shedding of APPsα compared to vehicle-treated cells: 58%
[7]; cell lysates
  production of CTFα: increased
[8]
  Aβ40 levels, % of the vehicle control: 61%
[9]; DStr lateral
  number of Fos-like immunoreactive neurons: 2.3 ± 1.3 per mm^2
[9]; DStr medial
  number of Fos-like immunoreactive neurons: 4.2 ± 1.2 per mm^2
[9]; NAS shell
  number of Fos-like immunoreactive neurons: 72.2 ± 12.6 per mm^2
[9]; PFC
  number of Fos-like immunoreactive neurons: 326.3 ± 57.1 per mm^2
[10]
  effect on amphetamine-induced hyperlocomotion: robust, dose-related inhibition
[11]
  effect on general locomotor output when administered alone: no effect
[1]
  catalepsy: did not induce catalepsy
[12]
  core body temperature: slight decrease
[13]
  Ki: 1400 nM
[14]
  response as % of the maximal response to CCh: 77.3±3.4%
[15]
  interaction of the agonist with the orthosteric antagonist atropine: noncompetitive

## CN1CCN(C2=Nc3cc(Cl)ccc3Nc3ccccc32)CC1 [clozapine]
[1]
  catalepsy: failed to produce catalepsy

## CCCCCCOc1nsnc1C1=CCCN(C)C1 [xanomeline]
[16]
  catalepsy: lack of catalepsy
